Data on 19 compounds can be found in PubChem BioAssay AID256 (DTP/NCI, 2004).

The structures appear in SMILES notation. Values joined by “and” are separate entries in the source; they are usually repeats but may differ in a detail not shown here. Equal entries are not always repeated. Inconclusive results and toxic doses are left out.

In this assay the test system is CD2F1 mice, L1210 leukemia ip, survival T/C. As to the kind of experiment: NCI In Vivo Anticancer Drug Screen. Data for tumor model L1210 Leukemia (intraperitoneal) in CD2F1 (CDF1) mice. The conditions noted are these: higher = longer survival. In short, it runs like this: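 Tumor-bearing mice (transplanted tumor) were split into treated and vehicle control groups, and the measured endpoint of each treated group was divided by that of its vehicle controls.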

Setting [1] is: endpoint: mean survival time, dose: 100.0 mg/kg/injection, schedule: Q01DX009 (ip), vehicle: saline.
[2] abbreviates: endpoint: mean survival time, dose: 100.0 mg/kg/injection, schedule: Q04DX003 (ip), vehicle: saline.
Where [3] appears, read: endpoint: mean survival time, dose: 200.0 mg/kg/injection, schedule: Q01DX009 (ip), vehicle: saline.
Setting [4] is: endpoint: mean survival time, dose: 200.0 mg/kg/injection, schedule: Q04DX003 (ip), vehicle: saline.
Where [5] appears, read: endpoint: mean survival time, dose: 100.0 mg/kg/injection, schedule: Q04DX003 (ip), vehicle: saline sonified.
Setting [6] is: endpoint: mean survival time, dose: 200.0 mg/kg/injection, schedule: Q04DX003 (ip), vehicle: saline sonified.
Setting [7] is: endpoint: mean survival time, dose: 400.0 mg/kg/injection, schedule: Q04DX003 (ip), vehicle: saline sonified.
Setting [8] is: endpoint: mean survival time, dose: 100.0 mg/kg/injection, schedule: Q01DX009 (ip), vehicle: saline with Tween-80.
Where [9] appears, read: endpoint: mean survival time, dose: 100.0 mg/kg/injection, schedule: Q04DX002 (ip), vehicle: saline with Tween-80.
The mark [10] stands for this setting: endpoint: mean survival time, dose: 200.0 mg/kg/injection, schedule: Q04DX002 (ip), vehicle: saline with Tween-80.
The mark [11] stands for this setting: endpoint: mean survival time, dose: 400.0 mg/kg/injection, schedule: Q04DX002 (ip), vehicle: saline with Tween-80.
Where [12] appears, read: endpoint: mean survival time, dose: 100.0 mg/kg/injection, schedule: Q04DX003 (ip), vehicle: saline with Tween-80.
Where [13] appears, read: endpoint: mean survival time, dose: 200.0 mg/kg/injection, schedule: Q04DX003 (ip), vehicle: saline with Tween-80.
[14] abbreviates: endpoint: mean survival time, dose: 400.0 mg/kg/injection, schedule: Q04DX003 (ip), vehicle: saline with Tween-80.
Where [15] appears, read: endpoint: mean survival time, dose: 200.0 mg/kg/injection, schedule: Q01DX009 (ip), vehicle: saline with Tween-80.
Where [16] appears, read: endpoint: mean survival time, dose: 400.0 mg/kg/injection, schedule: Q01DX009 (ip), vehicle: saline with Tween-80.

With `Cc1cccc(CCl)n1`, the T/C under setting [1] is 98 % of control; the T/C under setting [2] is 101 % of control; the T/C under setting [3] is 90 % of control; the T/C under setting [4] is 95 % of control; the T/C (endpoint: mean survival time, dose: 400.0 mg/kg/injection, schedule: Q04DX003 (ip), vehicle: saline) is 87 % of control.
Turning to `CCCCCCCCCCCc1n(Cc2ccccc2)c2ccccc2[n+]1C`, the T/C (endpoint: mean survival time, dose: 0.25 mg/kg/injection, schedule: Q01DX009 (ip), vehicle: saline) was 117 % of control; the T/C (endpoint: mean survival time, dose: 0.25 mg/kg/injection, schedule: Q04DX003 (ip), vehicle: saline) was 102 % of control; the T/C (endpoint: mean survival time, dose: 0.5 mg/kg/injection, schedule: Q01DX009 (ip), vehicle: saline) was 110 % of control; the T/C (endpoint: mean survival time, dose: 0.5 mg/kg/injection, schedule: Q04DX003 (ip), vehicle: saline) was 104 % of control; the T/C (endpoint: mean survival time, dose: 1.0 mg/kg/injection, schedule: Q01DX009 (ip), vehicle: saline) was 121 % of control; the T/C (endpoint: mean survival time, dose: 1.0 mg/kg/injection, schedule: Q04DX003 (ip), vehicle: saline) was 106 % of control.
In the case of `Cc1ccccc1S(=O)(=O)N(C)C`, the T/C is, setting by setting: under setting [5], 97 % of control; under setting [6], 94 % of control; under setting [7], 92 % of control.
Take `O=C(NCCCN1CC1)C(=O)NCCCN1CC1`: the T/C is 191 % of control (endpoint: mean survival time, dose: 3.13 mg/kg/injection, schedule: Q01DX009 (ip), vehicle: saline) and 101 % of control (endpoint: mean survival time, dose: 12.5 mg/kg/injection, schedule: Q01DX009 (ip), vehicle: saline).
Take `O=S(=O)(O)O.[Ga]`: the T/C by setting is: (endpoint: mean survival time, dose: 25.0 mg/kg/injection, schedule: Q01DX009 (ip), vehicle: saline with Tween-80) 120 % of control; (endpoint: mean survival time, dose: 50.0 mg/kg/injection, schedule: Q01DX009 (ip), vehicle: saline with Tween-80) 117 % of control; under setting [8], 90 % of control.
As for `O=C1C(C2CC3c4[nH]c5ccccc5c4CCN3C2=O)CC2c3[nH]c4ccccc4c3CCN12` (configuration not stated), the T/C by setting is: under setting [9], 93 % of control; under setting [10], 93 % of control; under setting [11], 93 % of control.
`Nc1nc2c(ncn2-c2cccc(C(F)(F)F)c2)c(=O)[nH]1`: the T/C was 94 % of control under setting [12], 89 % of control under setting [13] and 92 % of control under setting [14].
Turning to `Cc1ccc(C2(c3ccccc3)OC(=O)c3ccccc32)cc1` (configuration not stated), the T/C is 86 % of control under setting [8], 89 % of control under setting [12], 87 % of control under setting [13] and 86 % of control under setting [14].
Regarding `O=C(/C(=C/c1ccccc1)CN1CCOCC1)c1ccccc1`, the T/C is 101 % of control (endpoint: mean survival time, dose: 25.0 mg/kg/injection, schedule: Q01DX009 (ip), vehicle: Klucel (hydroxypropylcellulose) (HPC)); 105 % of control (endpoint: mean survival time, dose: 50.0 mg/kg/injection, schedule: Q01DX009 (ip), vehicle: Klucel (hydroxypropylcellulose) (HPC)); 91 % of control (endpoint: mean survival time, dose: 100.0 mg/kg/injection, schedule: Q01DX009 (ip), vehicle: Klucel (hydroxypropylcellulose) (HPC)).
For the compound `CCN(CC)CCNCCCNCCN(CC)CC`, the T/C reads like this: under setting [1], 92 % of control; under setting [12], 98 % of control; under setting [3], 92 % of control; under setting [13], 95 % of control; (endpoint: mean survival time, dose: 400.0 mg/kg/injection, schedule: Q01DX009 (ip), vehicle: saline) 87 % of control; under setting [14], 95 % of control.
For `NC(=S)N/N=C/c1ccccc1O`, the T/C was 102 % of control under setting [8], 91 % of control under setting [15] and 88 % of control under setting [16].
Take `CCCOC(=O)Nc1ccccn1`: the T/C under setting [9] is 108 % of control, the T/C under setting [10] is 108 % of control and the T/C under setting [11] is 97 % of control.
In the case of `O=S(=O)(O)C(O)c1cccnc1` (configuration not stated), the T/C is 98 % of control under setting [8]; 95 % of control under setting [5]; 96 % of control under setting [15]; 105 % of control under setting [6]; 95 % of control under setting [16]; 89 % of control under setting [7].
As to `O=C(NC(Cc1ccccc1)C(=O)CCl)OCc1ccccc1` (configuration not stated), the T/C (endpoint: mean survival time, dose: 25.0 mg/kg/injection, schedule: Q04DX003 (ip), vehicle: saline with Tween-80) was 97 % of control; the T/C (endpoint: mean survival time, dose: 50.0 mg/kg/injection, schedule: Q04DX003 (ip), vehicle: saline with Tween-80) is 100 % of control; the T/C under setting [12] was 109 % of control.
On to `CC(=O)Nc1cscc1NC(C)=O`, for which the T/C (endpoint: median survival time, dose: 12.5 mg/kg/injection, schedule: Q01DX009 (ip), vehicle: saline with Tween-80) was 100 % of control; the T/C (endpoint: median survival time, dose: 25.0 mg/kg/injection, schedule: Q01DX009 (ip), vehicle: saline with Tween-80) was 105 % of control and 111 % of control; the T/C (endpoint: median survival time, dose: 50.0 mg/kg/injection, schedule: Q01DX009 (ip), vehicle: saline with Tween-80) is 91 % of control and 103 % of control; the T/C (endpoint: median survival time, dose: 100.0 mg/kg/injection, schedule: Q01DX009 (ip), vehicle: saline with Tween-80) was 100 % of control and 101 % of control; the T/C (endpoint: median survival time, dose: 200.0 mg/kg/injection, schedule: Q01DX009 (ip), vehicle: saline with Tween-80) is 102 % of control and 103 % of control; the T/C (endpoint: median survival time, dose: 400.0 mg/kg/injection, schedule: Q01DX009 (ip), vehicle: saline with Tween-80) was 103 % of control and 108 % of control.
As for `CCCCCCCCCCCCCCOc1ccccc1Cl`, the T/C under setting [9] was 101 % of control, the T/C under setting [10] is 101 % of control and the T/C under setting [11] is 90 % of control.
Take `O=C1C2C3CCC(C3)C2N1Cc1ccccc1` (configuration not stated): the T/C by setting is: (endpoint: mean survival time, dose: 100.0 mg/kg/injection, schedule: Q04DX002 (ip), vehicle: other) 93 % of control; (endpoint: mean survival time, dose: 200.0 mg/kg/injection, schedule: Q04DX002 (ip), vehicle: other) 96 % of control; (endpoint: mean survival time, dose: 400.0 mg/kg/injection, schedule: Q04DX002 (ip), vehicle: other) 96 % of control.
Take `Cc1ccc(C2(SCC(N)C(=O)O)c3ccccc3-c3ccccc32)cc1` (configuration not stated): the T/C runs as follows: (endpoint: mean survival time, dose: 25.0 mg/kg/injection, schedule: Q01DX009 (ip), vehicle: saline) 95 % of control; (endpoint: mean survival time, dose: 50.0 mg/kg/injection, schedule: Q01DX009 (ip), vehicle: saline) 95 % of control; under setting [1], 97 % of control; under setting [3], 107 % of control.
Regarding `[CH3][Sb]([CH3])([CH3])([Cl])[Cl]`, the T/C is 105 % of control (endpoint: mean survival time, dose: 50.0 mg/kg/injection, schedule: Q04DX003 (ip), vehicle: saline); 101 % of control under setting [2]; 101 % of control under setting [4].
